{"source": "patent US11591341B2", "about": "(ALIGOS THERAPEUTICS, INC., priority 2019, dated 2023)", "system": "HBV", "assay": "HBV-DNA Antiviral Assay Using HepG2.117 Cells (intracellular HBV DNA by qPCR)", "assay_type": "cell-based, hepatitis B virus (genotype D)", "conditions": "Hepatitis B virus, HepG2.117", "method_in_brief": "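Endpoint: qPCR copy number of intracellular HBV DNA after 3-day compound exposure, with inhibition set relative to the 2% DMSO control. The cells were doxycycline-free HepG2.117 carrying a Tet-off genotype D genome, dosed at nine 4-fold dilutions. A duplicate plate gave ATP-based viability (CC50).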", "data": [{"smiles": "CC(C)Oc1ccc(-n2c(-c3ncc(Cc4ccccc4)s3)c3n(c2=O)CCN(C(=O)c2ccc(Br)c(Cl)c2)C3)cc1", "note": "[Example 325, 1-(5-benzylthiazol-2-yl)-7-(4-bromo-3-chlorobenzoyl)-2-(4-isopropoxyphenyl)-5,6,7,8-tetrahydroimidazo[1,5-a]pyrazin-3(2H)-one]", "values": [{"measurement": "EC50", "value": "> 5", "unit": "µM"}]}, {"smiles": "N#CCOc1ccc(CNC(=O)c2c3n(c(=O)n2-c2ccc(OCC(F)(F)F)cc2)CCN(C(=O)c2ccc(Br)c(Cl)c2)C3)c(F)c1", "note": "[Example 326, 7-(4-bromo-3-chloro-benzoyl)-N-[[4-(cyanomethoxy)-2-fluoro-phenyl]methyl]-3-oxo-2-[4-(2,2,2-trifluoroethoxy)phenyl]-6,8-dihydro-5H-imidazo[1,5-a]pyrazine-1-carboxamide]", "values": [{"measurement": "EC50", "value": "0.1 to 0.5", "unit": "µM"}]}, {"smiles": "O=C(NCc1ccccc1-n1cc(F)cn1)c1c2n(c(=O)n1-c1ccc(OCC(F)(F)F)cc1)CCN(C(=O)c1ccc(Br)c(Cl)c1)C2", "note": "[Example 327, 7-(4-bromo-3-chloro-benzoyl)-N-[[2-(4-fluoropyrazol-1-yl)phenyl]methyl]-3-oxo-2-[4-(2,2,2-trifluoroethoxy)phenyl]-6,8-dihydro-5H-imidazo[1,5-a]pyrazine-1-carboxamide]", "values": [{"measurement": "EC50", "value": "< 0.1", "unit": "µM"}]}, {"smiles": "NC(=O)COc1ccc(CNC(=O)c2c3n(c(=O)n2-c2ccc(OCC(F)(F)F)cc2)CCN(C(=O)c2ccc(Br)c(Cl)c2)C3)c(-n2cccn2)c1", "note": "[Example 328, N-[[4-(2-amino-2-oxo-ethoxy)-2-pyrazol-1-yl-phenyl]methyl]-7-(4-bromo-3-chloro-benzoyl)-3-oxo-2-[4-(2,2,2-trifluoroethoxy)phenyl]-6,8-dihydro-5H-imidazo[1,5-a]pyrazine-1-carboxamide]", "values": [{"measurement": "EC50", "value": "0.5 to 5", "unit": "µM"}]}, {"smiles": "O=C(NCc1ccc(OC2COC2)cc1F)c1c2n(c(=O)n1-c1ccc(OCC(F)(F)F)cc1)CCN(C(=O)c1ccc(Br)c(Cl)c1)C2", "note": "[Example 329, 7-(4-bromo-3-chloro-benzoyl)-N-[[2-fluoro-4-(oxetan-3-yloxy)phenyl]methyl]-3-oxo-2-[4-(2,2,2-trifluoroethoxy)phenyl]-6,8-dihydro-5H-imidazo[1,5-a]pyrazine-1-carboxamide]", "values": [{"measurement": "EC50", "value": "0.1 to 0.5", "unit": "µM"}]}, {"smiles": "O=C(NCc1ccccc1)c1c2n(c(=O)n1-c1ccc(OC3CC(F)(F)C3)cc1)CCN(C(=O)c1ccc(Br)c(Cl)c1)C2", "note": "[Example 350, N-benzyl-7-(4-bromo-3-chloro-benzoyl)-2-[4-(3,3-difluorocyclobutoxy)phenyl]-3-oxo-6,8-dihydro-5H-imidazo[1,5-a]pyrazine-1-carboxamide]", "values": [{"measurement": "EC50", "value": "0.5 to 5", "unit": "µM"}]}, {"smiles": "N#Cc1ccc(-n2c(C(=O)NCc3ccccc3)c3n(c2=O)CCN(C(=O)c2ccc(Br)c(Cl)c2)C3)c(Cl)c1", "note": "[Example 351, N-benzyl-7-(4-bromo-3-chloro-benzoyl)-2-(2-chloro-4-cyano-phenyl)-3-oxo-6,8-dihydro-5H-imidazo[1,5-a]pyrazine-1-carboxamide]", "values": [{"measurement": "EC50", "value": "> 5", "unit": "µM"}]}, {"smiles": "O=C(NCc1ccccc1)c1c2n(c(=O)n1-c1ccc3[nH]c(C(F)(F)F)cc3c1)CCN(C(=O)c1ccc(Br)c(Cl)c1)C2", "note": "[Example 352, N-benzyl-7-(4-bromo-3-chloro-benzoyl)-3-oxo-2-[2-(trifluoromethyl)-1H-indol-5-yl]-6,8-dihydro-5H-imidazo[1,5-a]pyrazine-1-carboxamide]", "values": [{"measurement": "EC50", "value": "0.5 to 5", "unit": "µM"}]}, {"smiles": "O=C(NCc1ccc(OC2COC2)cc1F)c1c2n(c(=O)n1-c1ccc(OC3CC3)cc1)CCN(C(=O)c1ccc(Br)c(Cl)c1)C2", "note": "[Example 363, 7-(4-bromo-3-chloro-benzoyl)-2-[4-(cyclopropoxy)phenyl]-N-[[2-fluoro-4-(oxetan-3-yloxy)phenyl]methyl]-3-oxo-6,8-dihydro-5H-imidazo[1,5-a]pyrazine-1-carboxamide]", "values": [{"measurement": "EC50", "value": "0.1 to 0.5", "unit": "µM"}]}, {"smiles": "Cn1ncc2cc(-n3c(C(=O)NCc4ccccc4)c4n(c3=O)CCN(C(=O)c3ccc(Br)c(Cl)c3)C4)ccc21", "note": "[Example 364, N-benzyl-7-(4-bromo-3-chloro-benzoyl)-2-(1-methylindazol-5-yl)-3-oxo-6,8-dihydro-5H-imidazo[1,5-a]pyrazine-1-carboxamide]", "values": [{"measurement": "EC50", "value": "0.1 to 0.5", "unit": "µM"}]}, {"smiles": "CC(C)(Oc1ccc(CNC(=O)c2c3n(c(=O)n2-c2ccc(OC4CC4)cc2)CCN(C(=O)c2ccc(Br)c(Cl)c2)C3)c(F)c1)C(N)=O", "note": "[Example 365, N-[[4-(2-amino-1,1-dimethyl-2-oxo-ethoxy)-2-fluoro-phenyl]methyl]-7-(4-bromo-3-chloro-benzoyl)-2-[4-(cyclopropoxy)phenyl]-3-oxo-6,8-dihydro-5H-imidazo[1,5-a]pyrazine-1-carboxamide]", "values": [{"measurement": "EC50", "value": "< 0.1", "unit": "µM"}]}, {"smiles": "O=C(NCc1ccccc1-c1ncco1)c1c2n(c(=O)n1-c1ccc(OC3CC3)cc1)CCN(C(=O)c1ccc(Br)c(Cl)c1)C2", "note": "[Example 366, 7-(4-bromo-3-chloro-benzoyl)-2-[4-(cyclopropoxy)phenyl]-N-[(2-oxazol-2-ylphenyl)methyl]-3-oxo-6,8-dihydro-5H-imidazo[1,5-a]pyrazine-1-carboxamide]", "values": [{"measurement": "EC50", "value": "< 0.1", "unit": "µM"}]}, {"smiles": "O=C(NCc1cccc2[nH]cnc12)c1c2n(c(=O)n1-c1ccc(OC3CC3)cc1)CCN(C(=O)c1ccc(Br)c(Cl)c1)C2", "note": "[Example 367, N-(1H-benzoimidazol-4-ylmethyl)-7-(4-bromo-3-chloro-benzoyl)-2-[4-(cyclopropoxy)phenyl]-3-oxo-6,8-dihydro-5H-imidazo[1,5-a]pyrazine-1-carboxamide]", "values": [{"measurement": "EC50", "value": "0.1 to 0.5", "unit": "µM"}]}, {"smiles": "O=C(NCc1cccc2[nH]cnc12)c1c2n(c(=O)n1-c1ccc(OCC(F)(F)F)cc1)CCN(C(=O)c1ccc(Br)c(Cl)c1)C2", "note": "[Example 368, N-(1H-benzimidazol-4-ylmethyl)-7-(4-bromo-3-chloro-benzoyl)-3-oxo-2-[4-(2,2,2-trifluoroethoxy)phenyl]-6,8-dihydro-5H-imidazo[1,5-a]pyrazine-1-carboxamide]", "values": [{"measurement": "EC50", "value": "0.5 to 5", "unit": "µM"}]}, {"smiles": "O=C(NCc1ccccc1-c1ccccn1)c1c2n(c(=O)n1-c1ccc(OC3CC3)cc1)CCN(C(=O)c1ccc(Br)c(Cl)c1)C2", "note": "[Example 369, 7-(4-bromo-3-chloro-benozyl)-2-[4-(cyclopropoxy)phenyl]-3-oxo-N-[[2-(2-pyridyl)phenyl]methyl]-6,8-dihydro-5H-imidazo[1,5-a]pyrazine-1-carboxamide]", "values": [{"measurement": "EC50", "value": "< 0.1", "unit": "µM"}]}, {"smiles": "O=C(NCc1ccccc1-c1ccccn1)c1c2n(c(=O)n1-c1ccc(OCC(F)(F)F)cc1)CCN(C(=O)c1ccc(Br)c(Cl)c1)C2", "note": "[Example 370, 7-(4-bromo-3-chloro-benzoyl)-3-oxo-N-[[2-(2-pyridyl)phenyl]methyl]-2-[4-(2,2,2-trifluoroethoxy)phenyl]-6,8-dihydro-5H-imidazo[1,5-a]pyrazine-1-carboxamide]", "values": [{"measurement": "EC50", "value": "< 0.1", "unit": "µM"}]}, {"smiles": "O=C(NCc1ccccc1-c1ncco1)c1c2n(c(=O)n1-c1ccc(OCC(F)(F)F)cc1)CCN(C(=O)c1ccc(Br)c(Cl)c1)C2", "note": "[Example 375, 7-(4-bromo-3-chloro-benzoyl)-N-[(2-oxazol-2-ylphenyl)methyl]-3-oxo-2-[4-(2,2,2-trifluoroethoxy)phenyl]-6,8-dihydro-5H-imidazo[1,5-a]pyrazine-1-carboxamide]", "values": [{"measurement": "EC50", "value": "0.1 to 0.5", "unit": "µM"}]}, {"smiles": "O=C(NCc1ccccc1-c1ncccn1)c1c2n(c(=O)n1-c1ccc(OC3CC3)cc1)CCN(C(=O)c1ccc(Br)c(Cl)c1)C2", "note": "[Example 376, 7-(4-bromo-3-chloro-benzoyl)-2-[4-(cyclopropoxy)phenyl]-3-oxo-N-[(2-pyrimidin-2-ylphenyl)methyl]-6,8-dihydro-5H-imidazo[1,5-a]pyrazine-1-carboxamide]", "values": [{"measurement": "EC50", "value": "< 0.1", "unit": "µM"}]}]}
